{
  "source": "patent US20230041563A1",
  "about": "“N-(1,3,4-OXADIAZOL-2-YL)ARYLCARBOXAMIDES OR SALTS THEREOF, PREPARATION METHODS, HERBICIDAL COMPOSITIONS AND USES THEREOF” (priority 2018, published 2023)",
  "test_system": "weeds",
  "experiment": "Actual control effects and combined effects of mixtures of active ingredients (i) and (ii), stem-leaf treatment, Gowing method",
  "format": "in vivo",
  "conditions": "20 days",
  "protocol": "According to the actual control effect and the property of the herbicides, the balance of the formula and other factors, the optimal ratio was determined. In the calculation formula: X represents the fresh weight inhibition rate when the active ingredient (i) is used in an amount of P; and Y represents the fresh weight inhibition rate when the active ingredient (ii) is used in an amount of Q. The statistical results are shown in Tables 9-11 below.",
  "key": {"[1]": {"conditions": "480 h, Echinochloa phyllopogon, (ii) 3 g a.i./mu, stem-leaf treatment, read-out: Control effect of (ii) alone at corresponding dose"}, "[2]": {"conditions": "Echinochloa phyllopogon, (ii) 3 g a.i./mu"}, "[3]": {"conditions": "480 h, Echinochloa phyllopogon, (ii) 15 g a.i./mu, stem-leaf treatment, read-out: Control effect of (ii) alone at corresponding dose"}, "[4]": {"conditions": "Echinochloa phyllopogon, (ii) 15 g a.i./mu"}, "[5]": {"conditions": "Echinochloa phyllopogon, (ii) 0.6 g a.i./mu"}, "[6]": {"conditions": "Echinochloa phyllopogon, (ii) 8 g a.i./mu"}},
  "note": "Like-named read-outs stand apart in the source and are kept apart here.",
  "data": [
    {"molecule": "CCSC(=O)N1CCCCCC1", "note": "[Molinate]", "values": [
      {"measurement": "pest or weed control at 45 g/ha", "setting": "[1]", "result": 7.8, "unit": "%"},
      {"measurement": "pest or weed control at 450 g/ha", "setting": "480 h, Echinochloa phyllopogon, (ii) 30 g a.i./mu, read-out: Control effect of (ii) alone at corresponding dose", "result": 40.6, "unit": "%"},
      {"measurement": "Control effect of (ii) alone at corresponding dose", "setting": "[2]", "result": 7.8, "unit": "%"}
    ]},
    {"molecule": "CCCc1ccc2nc(Cl)c(S(=O)(=O)NC(=O)Nc3nc(OC)cc(OC)n3)n2n1", "note": "[Propyrisulfuron]", "values": [
      {"measurement": "Control effect of (ii) alone at corresponding dose", "setting": "Cyperus difformis, (ii) 0.6 g a.i./mu", "result": 19.5, "unit": "%"},
      {"measurement": "Control effect of (ii) alone at corresponding dose", "setting": "Cyperus difformis, (ii) 1.5 g a.i./mu", "result": 46.3, "unit": "%"},
      {"measurement": "Control effect of (ii) alone at corresponding dose", "setting": "Cyperus difformis, (ii) 1.5 g a.i./mu, stem-leaf treatment", "result": 46.3, "unit": "%"}
    ]},
    {"molecule": "Cn1nc(C(F)(F)F)c(CS(=O)(=O)C2=NOC(C)(C)C2)c1OC(F)F", "note": "[Pyroxasulfone]", "values": [
      {"measurement": "Control effect of (ii) alone at corresponding dose", "setting": "Monochoria vaginalis, (ii) 9 g a.i./mu", "result": 34.5, "unit": "%"},
      {"measurement": "pest or weed control at […]", "setting": "Pontederia vaginalis, 480 h, Monochoria vaginalis, (ii) 0.5 g a.i./mu, read-out: Control effect of (ii) alone at corresponding dose", "result": 6.3, "unit": "%"},
      {"measurement": "pest or weed control at 135 g/ha", "setting": "Pontederia vaginalis, 480 h, Monochoria vaginalis, (ii) 9 g a.i./mu, stem-leaf treatment, read-out: Control effect of (ii) alone at corresponding dose", "result": 34.5, "unit": "%"}
    ]},
    {"molecule": "O=C(O)c1c(Cl)ccc2cc(Cl)cnc12", "note": "[Quinclorac]", "values": [
      {"measurement": "pest or weed control at 45 g/ha", "setting": "[1]", "result": 35.2, "unit": "%"},
      {"measurement": "pest or weed control at […]", "setting": "[3]", "result": 52.9, "unit": "%"},
      {"measurement": "Control effect of (ii) alone at corresponding dose", "setting": "[2]", "result": 35.2, "unit": "%"},
      {"measurement": "Control effect of (ii) alone at corresponding dose", "setting": "[4]", "result": 52.9, "unit": "%"}
    ]},
    {"molecule": "COc1cc(OC)nc(Oc2cccc(Oc3nc(OC)cc(OC)n3)c2C(=O)O)n1", "note": "[Bispyribac-sodium]", "values": [
      {"measurement": "pest or weed control at 9 g/ha", "setting": "480 h, Cyperus difformis, (ii) 0.6 g a.i./mu, read-out: Control effect of (ii) alone at corresponding dose", "result": 39.5, "unit": "%"},
      {"measurement": "pest or weed control at 15 g/ha", "setting": "480 h, Cyperus difformis, (ii) 1 g a.i./mu, stem-leaf treatment, read-out: Control effect of (ii) alone at corresponding dose", "result": 70.4, "unit": "%"},
      {"measurement": "Control effect of (ii) alone at corresponding dose", "setting": "Cyperus difformis, (ii) 1 g a.i./mu", "result": 70.4, "unit": "%"}
    ]},
    {"molecule": "C[C@@H](Oc1ccc(Oc2nc3ccc(Cl)cc3o2)cc1)C(=O)N(C)c1ccccc1F", "note": "[Metamifop]", "values": [
      {"measurement": "Control effect of (ii) alone at corresponding dose", "setting": "[5]", "result": 6.8, "unit": "%"},
      {"measurement": "Control effect of (ii) alone at corresponding dose", "setting": "Echinochloa phyllopogon, (ii) 0.6 g a.i./mu, stem-leaf treatment", "result": 6.8, "unit": "%"},
      {"measurement": "Control effect of (ii) alone at corresponding dose", "setting": "[6]", "result": 60.9, "unit": "%"},
      {"measurement": "Control effect of (ii) alone at corresponding dose", "setting": "Echinochloa phyllopogon, (ii) 8 g a.i./mu, stem-leaf treatment", "result": 60.9, "unit": "%"}
    ]},
    {"molecule": "O=C1CCCC(=O)C1C(=O)c1c(Cl)ccc2cc(Cl)cnc12", "note": "[Quintrione]", "values": [
      {"measurement": "Control effect of (ii) alone at corresponding dose", "setting": "Digitaria sanguinalis, (ii) 3 g a.i./mu, stem-leaf treatment", "result": 15.2, "unit": "%"},
      {"measurement": "Control effect of (ii) alone at corresponding dose", "setting": "[2]", "result": 15.8, "unit": "%"},
      {"measurement": "Control effect of (ii) alone at corresponding dose", "setting": "Echinochloa phyllopogon, (ii) 3 g a.i./mu, stem-leaf treatment", "result": 15.8, "unit": "%"},
      {"measurement": "Control effect of (ii) alone at corresponding dose", "setting": "Echinochloa phyllopogon, (ii) 30 g a.i./mu", "result": 66.7, "unit": "%"},
      {"measurement": "Control effect of (ii) alone at corresponding dose", "setting": "Echinochloa phyllopogon, (ii) 30 g a.i./mu, stem-leaf treatment", "result": 66.7, "unit": "%"}
    ]},
    {"molecule": "CCOc1cc(Oc2ccc(C(F)(F)F)cc2Cl)ccc1[N+](=O)[O-]", "note": "[Oxyfluorfen]", "values": [
      {"measurement": "pest or weed control at 3 g/ha", "setting": "480 h, Echinochloa phyllopogon, (ii) 0.2 g a.i./mu, stem-leaf treatment, read-out: Control effect of (ii) alone at corresponding dose", "result": 6.7, "unit": "%"},
      {"measurement": "pest or weed control at 120 g/ha", "setting": "480 h, Echinochloa phyllopogon, (ii) 8 g a.i./mu, stem-leaf treatment, read-out: Control effect of (ii) alone at corresponding dose", "result": 76.5, "unit": "%"},
      {"measurement": "Control effect of (ii) alone at corresponding dose", "setting": "Echinochloa phyllopogon, (ii) 0.2 g a.i./mu", "result": 6.7, "unit": "%"},
      {"measurement": "Control effect of (ii) alone at corresponding dose", "setting": "[6]", "result": 76.5, "unit": "%"}
    ]},
    {"molecule": "CC(C)Oc1cc(-n2nc(C(C)(C)C)oc2=O)c(Cl)cc1Cl", "note": "[Oxadiazon]", "values": [
      {"measurement": "pest or weed control at 45 g/ha", "setting": "[1]", "result": 14.3, "unit": "%"},
      {"measurement": "pest or weed control at […]", "setting": "[3]", "result": 41.3, "unit": "%"},
      {"measurement": "Control effect of (ii) alone at corresponding dose", "setting": "[2]", "result": 14.3, "unit": "%"},
      {"measurement": "Control effect of (ii) alone at corresponding dose", "setting": "[4]", "result": 41.3, "unit": "%"}
    ]},
    {"molecule": "CCC1(CC2(c3cccc(Cl)c3)CO2)C(=O)c2ccccc2C1=O", "note": "(centres unmarked) [Indanofan]", "values": [
      {"measurement": "Control effect of (ii) alone at corresponding dose", "setting": "Monochoria vaginalis, (ii) 5 g a.i./mu", "result": 20.8, "unit": "%"},
      {"measurement": "pest or weed control at 75 g/ha", "setting": "Pontederia vaginalis, 480 h, Monochoria vaginalis, (ii) 5 g a.i./mu, stem-leaf treatment, read-out: Control effect of (ii) alone at corresponding dose", "result": 20.8, "unit": "%"},
      {"measurement": "pest or weed control at 180 g/ha", "setting": "Pontederia vaginalis, 480 h, Monochoria vaginalis, (ii) 12 g a.i./mu, read-out: Control effect of (ii) alone at corresponding dose", "result": 63.1, "unit": "%"}
    ]},
    {"molecule": "Sanzuohuangcaotong", "values": [
      {"measurement": "Control effect of (ii) alone at corresponding dose", "setting": "Monochoria vaginalis, (ii) 3 g a.i./mu", "result": 21.5, "unit": "%"},
      {"measurement": "Control effect of (ii) alone at corresponding dose", "setting": "Monochoria vaginalis, (ii) 3 g a.i./mu, stem-leaf treatment", "result": 21.5, "unit": "%"},
      {"measurement": "Control effect of (ii) alone at corresponding dose", "setting": "Monochoria vaginalis, (ii) 6 g a.i./mu", "result": 40.1, "unit": "%"}
    ]},
    {"molecule": "CCNc1nc(NCC)nc(SC)n1", "note": "[Simetryn]", "values": [
      {"measurement": "pest or weed control at 9 g/ha", "setting": "480 h, Echinochloa phyllopogon, (ii) 0.6 g a.i./mu, stem-leaf treatment, read-out: Control effect of (ii) alone at corresponding dose", "result": 20.8, "unit": "%"},
      {"measurement": "pest or weed control at […]", "setting": "[3]", "result": 45.3, "unit": "%"},
      {"measurement": "Control effect of (ii) alone at corresponding dose", "setting": "[5]", "result": 20.8, "unit": "%"},
      {"measurement": "Control effect of (ii) alone at corresponding dose", "setting": "[4]", "result": 45.3, "unit": "%"}
    ]},
    {"molecule": "CCc1cccc(C)c1N(C(=O)CCl)C(C)COC", "note": "(centres unmarked) [Metolachlor]", "values": [
      {"measurement": "pest or weed control at 45 g/ha", "setting": "480 h, Digitaria sanguinalis, (ii) 3 g a.i./mu, stem-leaf treatment, read-out: Control effect of (ii) alone at corresponding dose", "result": 15.3, "unit": "%"},
      {"measurement": "pest or weed control at 45 g/ha", "setting": "[1]", "result": 7.8, "unit": "%"},
      {"measurement": "pest or weed control at […]", "setting": "480 h, Echinochloa phyllopogon, (ii) 15 g a.i./mu, read-out: Control effect of (ii) alone at corresponding dose", "result": 15.3, "unit": "%"},
      {"measurement": "Control effect of (ii) alone at corresponding dose", "setting": "[2]", "result": 7.8, "unit": "%"}
    ]}
  ]
}
